Laboratory results: patent US7002010B2, “Process for the preparation of morpholinones as light stabilizers” (Ciba Specialty Chemicals Corporation, priority 2000, dated 2006)

With `CC(N)(CO)COC(C)(C)C` (stereo not shown) [Compound 301, 2-amino-3-tert-butoxy-2-methyl-propan-1-ol] the melting point was 30 to 35 °C.
